Measured values published in US20140275108A1, “NOVEL BENZENESULFONAMIDE COMPOUNDS, METHOD FOR SYNTHESIZING SAME, AND USE THEREOF IN MEDICINE AS WELL AS IN COSMETICS” (GALDERMA RESEARCH & DEVELOPMENT, priority 2013, published 2014).
Read-outs that look alike come from different tables or passages of the source. Each block holds one molecule with its values, some of them ahead of it.

Legend:
other MMPs = assay: Inhibition of other MMPs (data not shown); type: biochemical
Excerpt: (§1) Several compounds were dose-response tested on TACE and MMP-1, MMP-3, and MMP-12 according to the same protocol as that described above.

MMP-12 = MMP-12 (Homo sapiens, UniProt P39900); assay: Inhibition of MMPs, MMP-12; type: biochemical; conditions: Table 3, Example 30
Excerpt: as §1

TACE enzyme = TACE enzyme (Homo sapiens, UniProt P78536); assay: Enzymatic assay for TACE inhibition (fluorescent substrate); type: biochemical
IL-6 = assay: Mouse ear edema model, IL-6 secretion by ear skin cells; type: in vivo, Balb/c mouse; conditions: ear tissue biopsy, topical Day 1 to Day 7; FIG. 2B
Method: (§2) P. acnes stimulates the production of inflammatory cytokines, such as TNFα and interleukins. In this Example, the mouse ear edema model was used to investigate inflammation induced by P. acnes. This is a chronic inflammation model involving intense innate and adaptive immunity. The thickness of the ear is measured each day to determine the amount of swelling caused by P. acnes. The amount of TNFα and IL-6 secreted is determined.
(§3) After one intradermal injection of live P. acnes on Day 0, each of the following preparations was topically applied once a day on the ear of a Balb/c mouse over the course of 7 days (from Day 1 to Day 7). […]
(§4) Preparations 1-3 served as controls for comparison with preparations 4-7. […] The thickness of the ear was measured each day with a caliper from day 1 until day 8. The amount of TNFα and IL-6 secreted by the skin cells was determined using tissue biopsy samples from the mouse ear. TNF-α and Il-6 were measured using the mouse BD™ Cytometric Bead Array Flex (BD Bioscience, Dosage by FacsArray).

[1] = tested on: edema induced by P. acnes; assay: Mouse ear edema model, cutaneous inflammation induced by P. acnes (ear thickness); type: in vivo, Balb/c mouse; conditions: topical on mouse ear, Day 1 to Day 7, after intradermal live P. acnes; Compound D 0.1%, 0.3%, 0.6% once a day, 0.6% twice a day; CD0153F 0.01% once a day; FIG. 1
Method: as §2, §3, §4

MMP-1 = molecular target: T1, MMP-1 (Homo sapiens, UniProt P03956); assay: Selectivity assay, MMP-1; type: biochemical; conditions: Table 3, Example 30
T1 construct: purchased Calbiochem
T1 sequence (P03956 100-469): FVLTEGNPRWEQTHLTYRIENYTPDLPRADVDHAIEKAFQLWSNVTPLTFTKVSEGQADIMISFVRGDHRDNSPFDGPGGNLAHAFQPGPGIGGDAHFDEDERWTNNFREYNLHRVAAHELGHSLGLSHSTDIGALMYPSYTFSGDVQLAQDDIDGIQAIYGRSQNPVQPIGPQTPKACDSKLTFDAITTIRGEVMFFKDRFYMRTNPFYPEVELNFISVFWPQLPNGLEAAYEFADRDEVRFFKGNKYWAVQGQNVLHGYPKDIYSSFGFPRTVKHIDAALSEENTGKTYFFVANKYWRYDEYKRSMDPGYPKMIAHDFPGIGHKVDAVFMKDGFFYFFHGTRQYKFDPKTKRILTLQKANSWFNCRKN

TNFα = assay: Mouse ear edema model, TNFα secretion by ear skin cells; type: in vivo, Balb/c mouse; conditions: ear tissue biopsy, topical Day 1 to Day 7; FIG. 2A
Method: as §2, §3, §4

MMP-3 = molecular target: T2, MMP-3 (Homo sapiens, UniProt P08254); assay: Selectivity assay, MMP-3; type: biochemical; conditions: Table 3, Example 30
T2 construct: purchased Calbiochem
Excerpt: The enzymes are purchased from Calbiochem.
as §1

[2] = Table 3, Example 30, read-out: TACE = ADAM 17 (IC50 nM)

Sequence of TACE enzyme (P78536 215-477): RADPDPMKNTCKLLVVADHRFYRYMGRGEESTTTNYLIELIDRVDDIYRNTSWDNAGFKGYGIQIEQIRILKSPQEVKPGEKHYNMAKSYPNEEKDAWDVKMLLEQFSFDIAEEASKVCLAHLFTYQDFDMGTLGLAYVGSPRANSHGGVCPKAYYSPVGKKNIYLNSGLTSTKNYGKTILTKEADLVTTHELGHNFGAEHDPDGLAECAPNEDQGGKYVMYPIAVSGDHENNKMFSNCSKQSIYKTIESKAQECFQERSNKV
Sequence of MMP-12 (P39900 106-470): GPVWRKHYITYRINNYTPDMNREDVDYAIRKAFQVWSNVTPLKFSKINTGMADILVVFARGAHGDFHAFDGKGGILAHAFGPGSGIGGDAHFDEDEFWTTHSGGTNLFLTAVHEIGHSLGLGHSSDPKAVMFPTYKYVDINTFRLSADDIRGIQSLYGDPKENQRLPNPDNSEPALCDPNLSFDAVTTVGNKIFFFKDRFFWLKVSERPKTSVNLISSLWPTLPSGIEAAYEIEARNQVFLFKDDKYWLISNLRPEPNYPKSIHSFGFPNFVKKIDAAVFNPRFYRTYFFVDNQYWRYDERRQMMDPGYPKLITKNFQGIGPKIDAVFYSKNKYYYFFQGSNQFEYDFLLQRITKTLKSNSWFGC
T2 sequence (P08254 100-477): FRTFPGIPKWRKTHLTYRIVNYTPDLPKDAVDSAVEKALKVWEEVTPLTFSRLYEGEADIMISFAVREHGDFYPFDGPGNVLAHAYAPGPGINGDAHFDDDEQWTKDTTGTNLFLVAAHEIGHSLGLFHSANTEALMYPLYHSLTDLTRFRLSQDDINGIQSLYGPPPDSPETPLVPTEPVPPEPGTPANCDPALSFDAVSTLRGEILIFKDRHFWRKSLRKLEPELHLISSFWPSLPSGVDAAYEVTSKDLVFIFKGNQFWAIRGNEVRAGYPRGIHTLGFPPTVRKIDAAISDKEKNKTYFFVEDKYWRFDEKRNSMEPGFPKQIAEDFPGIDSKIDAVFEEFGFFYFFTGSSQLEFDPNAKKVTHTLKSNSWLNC

IC50 (MMP-12): 226 nM
IC50 (TACE enzyme; [2]): 51 nM
Structure (SMILES): Cc1cc(COc2ccc(S(=O)(=O)NC[C@@H](C(=O)NO)N3CCOCC3)cc2)c2ccccc2n1 [B]
effect on other MMPs (other MMPs): no effect

IC50 (MMP-12): 977 nM
Structure (SMILES): Cc1cc(COc2ccc(S(=O)(=O)NC[C@@H](C(=O)NO)N3CCCCC3)cc2)c2ccccc2n1 [Compound A]
effect on other MMPs (other MMPs): no effect

IC50 (MMP-1): 969 nM
IC50 (TACE enzyme; [2]): 33 nM
IC50 (MMP-3): 574 nM
Structure (SMILES): Cc1cc(COc2ccc(S(=O)(=O)NC[C@@H](C(=O)NO)N3CCC(S(=O)(=O)C(C)C)CC3)cc2)c2ccccc2n1 [Compound D]
secretion of IL-6 induced by P. acnes (IL-6): moderately reduced
inhibition of edema (ear swelling) induced by P. acnes [1]: did not inhibit the edema
secretion of TNFα induced by P. acnes (TNFα): greatly reduced

IC50 (TACE enzyme; [2]): 62 nM
Structure (SMILES): Cc1cc(COc2ccc(S(=O)(=O)NC[C@@H](C(=O)NO)N3CCC(Cc4ccccc4)CC3)cc2)c2ccccc2n1 [C]

Structure (SMILES): CCCCC(=O)O[C@]1(C(=O)CO)[C@@H](C)C[C@H]2[C@@H]3CCC4=CC(=O)C=C[C@]4(C)[C@@]3(F)[C@@H](O)C[C@@]21C [CD0153F, betamethasone valerate, reference compound]
inhibition of edema (ear swelling) induced by P. acnes [1]: inhibition of inflammation
secretion of TNFα induced by P. acnes (TNFα): inhibiting TNFα secretion

% TACE inhibition at 10 μM (TACE enzyme): 100%
Structure (SMILES): CC#CCOc1ccc(S(=O)(=O)N(C)CC(C(=O)NO)N2CCN(S(C)(=O)=O)CC2)cc1 (centres unmarked) [Example 1, 3-[(4-but-2-ynyloxybenzenesulfonyl)methylamino]-N-hydroxy-2-(4-methanesulfonylpiperazin-1-yl)propionamide]

% TACE inhibition at 10 μM (TACE enzyme): 95%
IC50 (TACE enzyme; Table 1, read-out: IC50 - TACE): 497 nM
Structure (SMILES): CN(C[C@@H](C(=O)NO)N1CCN(S(C)(=O)=O)CC1)S(=O)(=O)c1ccc(OCc2ccccc2)cc1 [Example 4, (S)-3-[(4-Benzyloxybenzenesulfonyl)methylamino]-N-hydroxy-2-(4-methanesulfonylpiperazin-1-yl)propionamide]
